In patent publication US20110086759A1, “CHEMICAL COMPOUNDS” (SYNGENTA CROP PROTECTION, INC., priority 2007, published 2011) one finds pest or weed control data, which are given here for seven compounds.

Holding throughout (format): in vivo
Assay [1] relates to Echinochloa crus-galli (ECHCG). Briefly: Pre-emergence biological efficacy, glasshouse pot test. The settings on record: 312 h. An outline of the steps:
(§1)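 Glasshouse pot test: spray on soil one day after sowing, 1000 or 250 g/ha. Conditions 24/16 °C day/night, 14 h light, 65% humidity. Plant damage scored 0–100 at 13 days.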

The subject of assay [2] is Amaranthus retoflexus (AMARE). The assay is described as above. The following applies: Amaranthus retroflexus, 312 h. The method, boiled down: as §1
Assay [3] relates to Alopecurus myosuroides (ALOMY). The assay is described as above. The following applies: 312 h. The method, boiled down:
as §1

Assay [4] deals with Setaria faberi (SETFA). Described as above. The following applies: 312 h. The method, boiled down: as §1
In assay [5] the test system is Ipomea hederaceae (IPOHE). The assay is described as above. The settings on record: Ipomoea hederacea, 312 h. The method, boiled down:
as §1

The subject of assay [6] is Solanum nigrum (SOLNI). Described as above. The settings on record: 312 h. An outline of the steps:
as §1

Assay [7] deals with Echinochloa crus-galli (ECHCG). Briefly: Post-emergence biological efficacy, glasshouse pot test. The following applies: 312 h. The method, boiled down:
(§2)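 Pot-grown weeds were sprayed 8 days after sowing with test compound in acetone/water (50:50) with 0.5% Tween 20 at 1000 or 250 g/ha. Glasshouse at 24/16° C day/night, 14 h light, 65% humidity. Damage scored 0-100 (100 = total damage) after 13 days.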

Assay [8] concerns Amaranthus retoflexus (AMARE). The assay is described as above. The settings on record: Amaranthus retroflexus, 312 h. The method, boiled down:
as §2

Assay [9] concerns Alopecurus myosuroides (ALOMY). The description is as above. The following applies: 312 h. An outline of the steps:
as §2

Assay [10] relates to Setaria faberi (SETFA). The assay is described as above. The following applies: 312 h. The method, boiled down: as §2
Assay [11] concerns Ipomea hederaceae (IPOHE). Described as above. The following applies: Ipomoea hederacea, 312 h. An outline of the steps:
as §2

The test system of assay [12] is Solanum nigrum (SOLNI). The assay is described as above. The following applies: 312 h. The method, boiled down:
as §2

[13] abbreviates: pre-emergence, 1,000 g/ha, evaluated after 13 days (100=total damage; 0=no damage), read-out: Percentage damage ECHCG.
The mark [14] stands for this setting: pre-emergence, 1,000 g/ha, evaluated after 13 days (100=total damage; 0=no damage), read-out: Percentage damage AMARE.
The mark [15] stands for this setting: pre-emergence, 1,000 g/ha, evaluated after 13 days (100=total damage; 0=no damage), read-out: Percentage damage ALOMY.
The mark [16] stands for this setting: pre-emergence, 1,000 g/ha, evaluated after 13 days (100=total damage; 0=no damage), read-out: Percentage damage SETFA.
Setting [17] is: pre-emergence, 1,000 g/ha, evaluated after 13 days (100=total damage; 0=no damage), read-out: Percentage damage IPOHE.
The mark [18] stands for this setting: pre-emergence, 1,000 g/ha, evaluated after 13 days (100=total damage; 0=no damage), read-out: Percentage damage SOLNI.
Where [19] appears, read: post-emergence, 1,000 g/ha, evaluated after 13 days (100=total damage; 0=no damage), read-out: Percentage damage caused to weed species, ECHCG.
Where [20] appears, read: post-emergence, 1,000 g/ha, evaluated after 13 days (100=total damage; 0=no damage), read-out: Percentage damage caused to weed species, AMARE.
[21] abbreviates: post-emergence, 1,000 g/ha, evaluated after 13 days (100=total damage; 0=no damage), read-out: Percentage damage caused to weed species, ALOMY.
Setting [22] is: post-emergence, 1,000 g/ha, evaluated after 13 days (100=total damage; 0=no damage), read-out: Percentage damage caused to weed species, SETFA.
Where [23] appears, read: post-emergence, 1,000 g/ha, evaluated after 13 days (100=total damage; 0=no damage), read-out: Percentage damage caused to weed species, IPOHE.
The mark [24] stands for this setting: post-emergence, 1,000 g/ha, evaluated after 13 days (100=total damage; 0=no damage), read-out: Percentage damage caused to weed species, SOLNI.
Where [25] appears, read: pre-emergence, rate 1,000 g/ha, evaluated after 13 days (100=total damage to plant; 0=no damage), read-out: Percentage damage caused to weed species, ECHCG.
Setting [26] is: pre-emergence, rate 1,000 g/ha, evaluated after 13 days (100=total damage to plant; 0=no damage), read-out: Percentage damage caused to weed species, AMARE.
Where [27] appears, read: pre-emergence, rate 1,000 g/ha, evaluated after 13 days (100=total damage to plant; 0=no damage), read-out: Percentage damage caused to weed species, ALOMY.
The mark [28] stands for this setting: pre-emergence, rate 1,000 g/ha, evaluated after 13 days (100=total damage to plant; 0=no damage), read-out: Percentage damage caused to weed species, SETFA.
[29] abbreviates: pre-emergence, rate 1,000 g/ha, evaluated after 13 days (100=total damage to plant; 0=no damage), read-out: Percentage damage caused to weed species, IPOHE.
Where [30] appears, read: pre-emergence, rate 1,000 g/ha, evaluated after 13 days (100=total damage to plant; 0=no damage), read-out: Percentage damage caused to weed species, SOLNI.
Setting [31] is: Rate 1,000 g/ha, post-emergence spray, evaluated after 13 days (100=total damage to plant; 0=no damage to plant), read-out: Percentage damage caused to weed species, post-emergence, ECHCG.
The mark [32] stands for this setting: Rate 1,000 g/ha, post-emergence spray, evaluated after 13 days (100=total damage to plant; 0=no damage to plant), read-out: Percentage damage caused to weed species, post-emergence, AMARE.
Setting [33] is: Rate 1,000 g/ha, post-emergence spray, evaluated after 13 days (100=total damage to plant; 0=no damage to plant), read-out: Percentage damage caused to weed species, post-emergence, ALOMY.
Where [34] appears, read: Rate 1,000 g/ha, post-emergence spray, evaluated after 13 days (100=total damage to plant; 0=no damage to plant), read-out: Percentage damage caused to weed species, post-emergence, SETFA.
The mark [35] stands for this setting: Rate 1,000 g/ha, post-emergence spray, evaluated after 13 days (100=total damage to plant; 0=no damage to plant), read-out: Percentage damage caused to weed species, post-emergence, IPOHE.
Setting [36] is: Rate 1,000 g/ha, post-emergence spray, evaluated after 13 days (100=total damage to plant; 0=no damage to plant), read-out: Percentage damage caused to weed species, post-emergence, SOLNI.

As for `Cc1ccc(CNc2nc(C3CC3)nc(C(=O)O)c2Cl)cc1` [Compound 1-73, 5-Chloro-2-cyclo-propyl-4-(4-methyl-phenylmethyl-amino)pyrimidine-6-carboxylic acid], the pest or weed control at 1000 g/ha in assay [1] (setting [13]) was 10%; in [2] (setting [14]), 70%; in assay [3] (setting [15]) it was 10%; in the assay on Setaria faberi (SETFA) [4] (setting [16]), 30%; in assay [5] (setting [17]), 60%; in the assay on Solanum nigrum (SOLNI) [6] (setting [18]), 80%. Besides, the pest or weed control at 1000 g/ha in [7] (setting [19]) was determined as 30%; in [8] (setting [20]), 100%; in [9] (setting [21]), 10%; with Setaria faberi (SETFA) [10] (setting [22]), 50%; in [11] (setting [23]) it was 80%; with Solanum nigrum (SOLNI) [12] (setting [24]) it was 80%.
On to `COC(=O)c1nc(C2CC2)nc(NC(C)CCc2ccccc2)c1Cl` (stereo not drawn) [Compound 4-252, 5-Chloro-2-cyclopropyl-6-methoxycarbonyl-4-(3-phenyl-1-methyl-propylamino)-pyrimidine], for which the pest or weed control at 1000 g/ha stood at 0% in [1] (setting [13]); 20% in [2] (setting [14]); 0% in assay [3] (setting [15]); 0% in the assay with Setaria faberi (SETFA) [4] (setting [16]); 0% in assay [5] (setting [17]); 0% in the assay on Solanum nigrum (SOLNI) [6] (setting [18]). Besides, the pest or weed control at 1000 g/ha turned out to be 0% in [7] (setting [19]); 100% in [8] (setting [20]); 10% in [9] (setting [21]); 30% in the assay with Setaria faberi (SETFA) [10] (setting [22]); 60% in assay [11] (setting [23]); 60% in the assay with Solanum nigrum (SOLNI) [12] (setting [24]).
In the case of `C=CCC(Nc1nc(C2CC2)nc(C(=O)OC)c1Cl)c1ccc(Cl)cc1` (stereo not drawn) [Compound 4-198, 5-Chloro-4-[1-(4-chlorophenyl)but-3-en-1-yl-amino]-2-cyclopropyl-6-methoxycarbonyl-pyrimidine], the pest or weed control at 1000 g/ha in [1] (setting [13]) came to 0%; in assay [2] (setting [14]), 30%; in [3] (setting [15]) it was 0%; in the assay on Setaria faberi (SETFA) [4] (setting [16]), 0%; in assay [5] (setting [17]), 70%; in the assay on Solanum nigrum (SOLNI) [6] (setting [18]) it was 20%. The pest or weed control at 1000 g/ha in assay [7] (setting [19]) is 0%; in assay [8] (setting [20]) it was 40%; in assay [9] (setting [21]), 20%; with Setaria faberi (SETFA) [10] (setting [22]), 40%; in assay [11] (setting [23]) it was 60%; in the assay with Solanum nigrum (SOLNI) [12] (setting [24]), 30%.
`COC(=O)c1nc(C2CC2)nc(N(C)CCc2ccccn2)c1Cl` [Compound 5-228, 5-Chloro-2-cyclopropyl-6-methoxycarbonyl-4-[N-methyl-N-(2-pyrid-2-ylethyl)-amino]pyrimidine]: the pest or weed control at 1000 g/ha in assay [1] (setting [25]) was determined as 0%; in assay [2] (setting [26]) it was 80%; in assay [3] (setting [27]), 0%; in the assay with Setaria faberi (SETFA) [4] (setting [28]), 0%; in assay [5] (setting [29]), 0%; in the assay with Solanum nigrum (SOLNI) [6] (setting [30]), 70%. Besides, the pest or weed control at 1000 g/ha in assay [7] (setting [31]) is 30%; in assay [8] (setting [32]), 100%; in assay [9] (setting [33]), 20%; in the assay with Setaria faberi (SETFA) [10] (setting [34]), 40%; in assay [11] (setting [35]) it was 90%; in the assay on Solanum nigrum (SOLNI) [12] (setting [36]) it was 70%.
Regarding `COC(=O)c1nc(C2CC2)nc(NC2CCCC2)c1Cl` [Compound 4-33, 5-Chloro-4-cyclopentylamino-2-cyclopropyl-6-methoxycarbonyl-pyrimidine], the pest or weed control at 1000 g/ha in [1] (setting [13]) is 20%; in assay [2] (setting [14]) it was 50%; in assay [3] (setting [15]), 0%; in the assay on Setaria faberi (SETFA) [4] (setting [16]), 10%; in assay [5] (setting [17]), 50%; in the assay with Solanum nigrum (SOLNI) [6] (setting [18]), 20%. Further, the pest or weed control at 1000 g/ha in assay [7] (setting [19]) worked out at 60%; in assay [8] (setting [20]), 80%; in [9] (setting [21]), 30%; with Setaria faberi (SETFA) [10] (setting [22]) it was 70%; in assay [11] (setting [23]), 70%; in the assay with Solanum nigrum (SOLNI) [12] (setting [24]) it was 70%.
Take `COC(=O)c1nc(C2CC2)nc(NCc2cccc(Cl)c2)c1Cl` [Compound 4-62]: the pest or weed control at 1000 g/ha in assay [1] (setting [13]) turned out to be 20%; in assay [2] (setting [14]) it was 100%; in assay [3] (setting [15]), 10%; with Setaria faberi (SETFA) [4] (setting [16]) it was 10%; in assay [5] (setting [17]), 60%; with Solanum nigrum (SOLNI) [6] (setting [18]), 90%. Also, the pest or weed control at 1000 g/ha was 70% in [7] (setting [19]); 100% in assay [8] (setting [20]); 30% in [9] (setting [21]); 90% in the assay with Setaria faberi (SETFA) [10] (setting [22]); 100% in [11] (setting [23]); 100% in the assay on Solanum nigrum (SOLNI) [12] (setting [24]).
With `COC(=O)c1nc(C2CC2)nc(N(C)Cc2ccc(OC)cc2)c1Cl` [Compound 5-80, 5-Chloro-2-cyclopropyl-6-methoxycarbonyl-4-[N-(4-methoxy-phenyl)methyl-N-methyl-amino]-pyrimidine], the pest or weed control at 1000 g/ha was found to be 0% in [1] (setting [25]); 100% in assay [2] (setting [26]); 0% in [3] (setting [27]); 20% with Setaria faberi (SETFA) [4] (setting [28]); 60% in assay [5] (setting [29]); 30% with Solanum nigrum (SOLNI) [6] (setting [30]). The pest or weed control at 1000 g/ha in assay [7] (setting [31]) amounted to 50%; in [8] (setting [32]) it was 100%; in assay [9] (setting [33]) it was 20%; in the assay with Setaria faberi (SETFA) [10] (setting [34]), 80%; in [11] (setting [35]) it was 100%; with Solanum nigrum (SOLNI) [12] (setting [36]) it was 100%.
